{
  "source": "patent US9074016B2",
  "about": "“G protein-related kinase mutants in essential hypertension” (priority 1998, dated 2015)",
  "key": {"D1 receptor [1]": {"target": "T1, D1 receptor (Homo sapiens, UniProt P21728)", "T1 construct": "endogenous in cells; host or cells: renal proximal tubule cells in culture from normotensive and hypertensive human subjects", "T1 sequence (P21728 whole entry)": "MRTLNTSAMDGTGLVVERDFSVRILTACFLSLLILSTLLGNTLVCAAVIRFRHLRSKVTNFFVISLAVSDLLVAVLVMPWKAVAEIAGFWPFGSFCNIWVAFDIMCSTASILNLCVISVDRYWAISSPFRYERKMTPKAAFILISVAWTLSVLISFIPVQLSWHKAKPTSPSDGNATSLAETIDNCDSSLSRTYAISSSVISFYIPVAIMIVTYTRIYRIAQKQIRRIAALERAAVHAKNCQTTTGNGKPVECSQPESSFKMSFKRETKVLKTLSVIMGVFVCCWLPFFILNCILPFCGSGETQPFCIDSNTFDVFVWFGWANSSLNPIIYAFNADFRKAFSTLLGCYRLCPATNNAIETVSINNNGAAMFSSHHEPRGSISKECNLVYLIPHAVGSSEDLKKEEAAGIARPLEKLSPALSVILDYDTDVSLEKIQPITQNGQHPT", "assay": "Serine phosphorylation of D1 receptor (immunoprecipitation / anti-phosphoserine immunoblot) in renal proximal tubule cells", "assay_type": "cell-based", "details": "normotensive subjects", "procedure": "Proximal tubule cells were incubated with vehicle, fenoldopam, sense, scrambled or antisense propyne/phosphorothioate oligonucleotides (5 nM) as described above. The membranes were lyzed with ice cold lysis buffer (PBS with 1% NP40, 0.5% sodium deoxycholate, 0.1% SDS, 1 mM EDTA, 1 mM EGTA, 1 mM sodium vanadate, 1 mM NaF, 1 mM PMSF, 10 μg/ml aprotinin and 10 μg/ml leupeptin). The lysates were incubated with IgG-purified anti D1 receptor antibody on ice for 1 hr and protein-A agarose for 12 hrs with rocking at 4° C. The proteins separated by SDS-polyacrylamide gel electrophoresis were electrophoretically transferred onto nitrocellulose membranes. The transblot sheets blocked with 5-10% nonfat dry milk in 10 mM Tris-HCl, pH 7.5, 150 mM NaCl, and 0.1% Tween-20 were incubated with diluted affinity-purified polyclonal anti-phosphoserine antibody (Zymed Lab, San Francisco, Calif.); Sanada, et al., supra. In some cases, the cells were labeled with ^32P and immunoprecipitated with anti D1 receptor antibody. The autoradiograms and immunoblots, visualized with ECL system (Amersham, Arlington Heights, Il) were quantified by densitometry. Sanada, et al., supra."}, "[2]": {"test_system": "GRK activity in renal proximal tubule cells", "assay": "GRK activity (phosphorylation of rhodopsin) in extracts of renal proximal tubule cells", "assay_type": "cell-based, human", "from_the_text": "Human kidneys were obtained as fresh surgical specimens from patients who had unilateral nephrectomy due to renal carcinoma. The patient records of the subjects were reviewed and classified into those with either normal blood pressure (n=9) or essential hypertension (n=14). Subjects with systolic blood pressures less than 140 mm Hg and diastolic blood pressures less than 90 mm Hg were considered normotensive. Subjects with systolic blood pressures equal to or greater than 140 mm Hg or diastolic blood pressures equal to or greater than 90 mm Hg and/or on antihypertensive medications were considered hypertensive. […]\nGRK activity was measured according to Benovic, Methods Enzymol. […] The gels were subjected to autoradiography, and the phosphorylated rhodopsin was quantified using both densitometry and radioactive counting of the excised bands at the appropriate size. GRK activity was also measured in the presence or absence of a GRK isoform antibody."}, "D1 receptor [3]": {"test_system": "D1 receptor", "assay": "cAMP production in CHO cells transfected with D1 receptor and GRK4γ", "assay_type": "cell-based", "method": "The cells were washed twice with Dulbecco's phosphate buffered saline (D-PBS), after which 1 mM 3-isobutyl-1-methyl-xanthine was added to each well. The cells were incubated at 37° C. for 30 minutes with or without drugs: dopamine and the D1-like receptor agonist, fenoldopam, the D1-like receptor antagonist, SCH23390 (Research Biochemicals International, Natick, Mass.), and forskolin (Sigma Chemical Co., St. Louis, Mo.). Then, the cells were washed twice with D-PBS and frozen at −80° C. and the cells were further lysed with 0.1N HCl. cAMP concentration was measured by radioimmunoassay. […] Protein concentration was measured with the BCA protein assay kit (Pierce Chem. Co., Rockford, Ill.).\nThe rat D1 (rD1) or human D1 (hD1) receptor cDNA was subcloned in the expression vector pPUR (Clontech, Palo Alto, Calif.) or pcDNA3.1/Zeo (Invitrogen, Carlsbad, Calif.), respectively, between EcoRland XbaI sites. The resulting constructs were used to stably transfect CHO cells expressing the pTet-Off regulator plasmid (Clontech, Palo Alto, Calif.) using calcium phosphate. […] GRK4γ and GRK4δcDNAs, obtained from RT/PCR of mRNA from human kidney cortex were subcloned into a pTet-Off response plasmid (pTRE-rD1 or pTRE-hD1 and pTK-Hyg mixed in a 20:1 ratio, respectively) (Clontech, Palo Alto, Calif.).\nGRK4δ was used for comparison."}, "[4]": {"test_system": "D1 receptor / adenylyl cyclase coupling in renal proximal tubule cells", "assay": "cAMP accumulation in renal proximal tubule cells", "assay_type": "cell-based, human", "details": "normotensive versus hypertensive subjects", "procedure": "Cultures of renal proximal tubule cells from histologically-verified normal kidney sections (5×10^5 cells/well in 24 well plastic plates coated with 0.075% Type I collagen) were incubated at 37° C. in […] and grown in a serum-free medium consisting of a 1:1 mixture of Dulbecco's Modified Eagle's medium and Ham's F12 medium supplemented with selenium (5 ng/ml), insulin (5 μg/ml), transferrin (5 μg/ml), hydrocortisone (36 ng/ml), triiodothyronine (4 pg/ml), and epidermal growth factor (10 ng/ml). When sub-confluent (90-95%), the cells were sub-cultured (passages 6-8) for use in experimental protocols using trypsin-EDTA (0.05%, 0.02%). The culture conditions are conducive for growth of human renal proximal tubules that retain characteristics of renal proximal tubule cells, Sanada, et al., J. Invest. Med. 45:277 A (1997).\nThe cells were washed twice with Dulbecco's phosphate buffered saline (D-PBS), after which 1 mM 3-isobutyl-1-methyl-xanthine was added to each well. […] Then, the cells were washed twice with D-PBS and frozen at −80° C. and the cells were further lysed with 0.1N HCl. cAMP concentration was measured by radioimmunoassay. […] Protein concentration was measured with the BCA protein assay kit (Pierce Chem. Co., Rockford, Ill.). […]"}},
  "note": "Entries after “also recorded” stand apart in the source; their conditions may differ.",
  "data": [
    {"smiles": "Oc1ccc(C2CNCCc3c2cc(O)c(O)c3Cl)cc1", "note": "(centres unmarked) [fenoldopam]", "values": [
      {"measurement": "quantity of serine-phosphorylated D1 receptor", "setting": "D1 receptor [1]", "value": "increased the quantity of serine-phosphorylated D1 receptor"},
      {"measurement": "effect on GRK activity, assessed by the phosphorylation of rhodopsin", "setting": "[2]; renal proximal tubule cells from hypertensive subjects", "value": "increased GRK activity"},
      {"measurement": "effect on GRK activity, assessed by the phosphorylation of rhodopsin", "setting": "[2]; renal proximal tubule cells from normotensive subjects", "value": "had no effect on GRK activity; also recorded: failed to increase GRK activity"},
      {"measurement": "selectivity of action on cAMP production", "setting": "D1 receptor [3]", "value": "selective for the D1 receptor"},
      {"measurement": "cAMP accumulation", "setting": "[4]", "value": "increased cAMP accumulation to a greater extent in renal proximal tubule cells from normotensive than from hypertensive subjects"}
    ]}
  ]
}
